The target of assay [1] is T1, Potassium voltage-gated channel subfamily A member 3 (Homo sapiens, UniProt P22001). More on the design: species or system Blood.
The target in assay [2] is T1, Potassium voltage-gated channel subfamily A member 3. The assay is classed as cell-based, CHO-K1.
The target is the same in assay [3]. The assay is described as follows: cell-based. More on the design: species or system Blood.

Where only a bound is given, the exact number is not on record here.

Usually IC50 stands for the point on the concentration scale where inhibition reaches its midpoint. Lower therefore signals inhibition by little substance.

T1 sequence (P22001 whole entry): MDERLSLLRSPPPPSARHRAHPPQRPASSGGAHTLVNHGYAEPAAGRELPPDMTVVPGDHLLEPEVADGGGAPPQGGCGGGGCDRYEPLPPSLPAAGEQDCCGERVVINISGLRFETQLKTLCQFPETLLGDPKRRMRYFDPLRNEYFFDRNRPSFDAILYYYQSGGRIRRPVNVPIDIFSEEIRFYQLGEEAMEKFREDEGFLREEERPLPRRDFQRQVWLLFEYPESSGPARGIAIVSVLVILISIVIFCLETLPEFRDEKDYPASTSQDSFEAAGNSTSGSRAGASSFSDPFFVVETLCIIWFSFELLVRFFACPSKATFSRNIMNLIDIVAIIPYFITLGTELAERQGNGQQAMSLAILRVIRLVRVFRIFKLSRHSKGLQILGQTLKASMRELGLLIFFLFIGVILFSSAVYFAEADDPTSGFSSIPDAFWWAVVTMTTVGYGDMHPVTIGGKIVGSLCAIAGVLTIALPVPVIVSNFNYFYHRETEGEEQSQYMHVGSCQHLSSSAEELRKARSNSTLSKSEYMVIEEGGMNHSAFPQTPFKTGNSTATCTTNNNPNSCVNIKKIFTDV

For `CC[C@H](C)[C@@H]1NC(=O)[C@@H](NC(=O)[C@H](CO)NC(=O)[C@@H](N)CCCNC(=N)N)CSSC[C@@H](C(=O)O)NC(=O)[C@H]([C@@H](C)O)NC(=O)CNC(=O)[C@@H]2CSSC[C@@H]3NC(=O)[C@H](CCC(N)=O)NC(=O)[C@H](Cc4ccccc4)NC(=O)[C@H](C)NC(=O)[C@H]([C@@H](C)O)NC(=O)[C@H](CSSC[C@H](NC(=O)[C@H](Cc4ccccc4)NC(=O)[C@H](CO)NC(=O)[C@H](CC(C)C)NC(=O)[C@H](CCCNC(=N)N)NC(=O)[C@H](Cc4ccc(O)cc4)NC(=O)[C@H](CCCCN)NC(=O)[C@H](CCSC)NC(=O)[C@H](CO)NC(=O)[C@H](Cc4cnc[nH]4)NC(=O)[C@H](CCCCN)NC3=O)C(=O)N[C@@H](CCCNC(=N)N)C(=O)N[C@@H](CCCCN)C(=O)N[C@@H]([C@@H](C)O)C(=O)N2)NC(=O)[C@H](CCCNC(=N)N)NC(=O)[C@H](CO)NC(=O)[C@H](CCCCN)NC(=O)[C@@H]2CCCN2C(=O)[C@H]([C@@H](C)CC)NC(=O)[C@H]([C@@H](C)O)NC(=O)[C@H](CCC(=O)O)NC1=O`, the half-maximal inhibitory concentration (IC50) is more than 24.6 nM in assay [1], more than 3.33 nM in assay [2] and 16.9 nM in assay [3].
With `CC[C@H](C)[C@@H]1NC(=O)[C@@H](NC(=O)[C@H](CO)NC(=O)[C@@H](N)CCCNC(=N)N)CSSC[C@@H](C(=O)O)NC(=O)[C@H]([C@@H](C)O)NC(=O)CNC(=O)[C@@H]2CSSC[C@@H]3NC(=O)[C@H](CCC(N)=O)NC(=O)[C@H](Cc4ccccc4)NC(=O)[C@H](C)NC(=O)[C@H]([C@@H](C)O)NC(=O)[C@H](CSSC[C@H](NC(=O)[C@H](Cc4ccccc4)NC(=O)[C@H](CO)NC(=O)[C@H](CC(C)C)NC(=O)[C@H](CCCNC(=N)N)NC(=O)[C@H](CCC(=O)O)NC(=O)[C@H](CCCCN)NC(=O)[C@H](CCSC)NC(=O)[C@H](CO)NC(=O)[C@H](Cc4cnc[nH]4)NC(=O)[C@H](CCCCN)NC3=O)C(=O)N[C@@H](CCCNC(=N)N)C(=O)N[C@@H](CCCCN)C(=O)N[C@@H]([C@@H](C)O)C(=O)N2)NC(=O)[C@H](CCCNC(=N)N)NC(=O)[C@H](CO)NC(=O)[C@H](CCCCN)NC(=O)[C@@H]2CCCN2C(=O)[C@H]([C@@H](C)CC)NC(=O)[C@H]([C@@H](C)O)NC(=O)[C@H](CC(=O)O)NC1=O`, the IC50 in assay [1] was more than 100 nM; in assay [2], more than 3.33 nM; in assay [3], more than 100 nM.
In the case of `CC[C@H](C)[C@@H]1NC(=O)[C@@H](NC(=O)[C@H](CO)NC(=O)[C@@H](N)CCCNC(=N)N)CSSC[C@@H](C(=O)O)NC(=O)[C@H]([C@@H](C)O)NC(=O)CNC(=O)[C@@H]2CSSC[C@@H]3NC(=O)[C@H](CCCCN)NC(=O)[C@H](Cc4ccccc4)NC(=O)[C@H](C)NC(=O)[C@H]([C@@H](C)O)NC(=O)[C@H](CSSC[C@H](NC(=O)[C@H](Cc4ccccc4)NC(=O)[C@H](CO)NC(=O)[C@H](CC(C)C)NC(=O)[C@H](CCCNC(=N)N)NC(=O)[C@H](Cc4ccc(O)cc4)NC(=O)[C@H](CCCCN)NC(=O)[C@H](CCCCN)NC(=O)[C@H](CO)NC(=O)[C@H](Cc4cnc[nH]4)NC(=O)[C@H](CCCCN)NC3=O)C(=O)N[C@@H](CCCNC(=N)N)C(=O)N[C@@H](CCCCN)C(=O)N[C@@H]([C@@H](C)O)C(=O)N2)NC(=O)[C@H](CCCNC(=N)N)NC(=O)[C@H](CO)NC(=O)[C@H](CCCCN)NC(=O)[C@@H]2CCCN2C(=O)[C@H]([C@@H](C)CC)NC(=O)[C@H]([C@@H](C)O)NC(=O)[C@H](CC(=O)O)NC1=O`, the IC50 in assay [1] stood at 5.68 nM; in assay [2] (cho-k1), 0.13 nM; in assay [3], 0.249 nM.

For the origin of these results see ChEMBL document CHEMBL3608278 (J Med Chem, 2015).
